Earlier results as cited in article PMC11659887 (ACS Bio & Med Chem Au, 2024).

Tested on: SARS-CoV-2 M^pro E166Q

SMILES: CC(C)(C)[C@H](NC(=O)C(F)(F)F)C(=O)N1C[C@H]2[C@@H]([C@H]1C(=O)N[C@H](C#N)C[C@@H]1CCNC1=O)C2(C)C [nirmatrelvir, Nirmatrelvir]
- resistance to nirmatrelvir: no significant resistance
